“Also recorded” adds a separate entry of the source. Like-named read-outs stand apart in the source and are kept apart here.
Columns and labels:
[1] = system: human antizyme sequence; experiment: in vitro antizyme dual luciferase frameshifting assay (in vitro translation in reticulocyte lysate); format: biochemical; conditions: for In vitro antizyme induction / antizyme induction: result in words; for antizyme induction: sentence does not say in vitro or in vivo, context is the in vitro assay
Source text: As one skilled in the art would appreciate, there are a multitude of means to test the agmatine and polyamine analogs of the invention for the ability to induce a frameshift. […] This assay allows one to measure the efficiency of translational frameshifting on the human antizyme sequence. Briefly, two variations of the human antizyme sequence were cloned between the renilla (5') and firefly (3') luciferase reporter genes in pRL-SV40 (Promega) plasmids. One plasmid contained the wild type antizyme sequence which requires a +1 frameshift for complete translation, the other plasmid contained modified, in-frame antizyme (control) sequences. These plasmids are utilized to transiently or stably transfect human cell lines with either the wild type or in-frame antizyme sequence-containing plasmids. Renilla and firefly luciferase activity in each assay (with cells containing one of the two plasmids) is measured to account for polymerase fall-off or translational efficiency in the presence or absence of the agmatine and polyamine analogs of the invention. That ratio is used to normalize the firefly luciferase activity seen in the wild type sequence, compared to the in-frame control sequence.
(§1) In vitro assays of the effect of agmatine and polyamine analogs on antizyme frameshifting were performed as follows. Linearized plasmids containing the wild type and in-frame antizyme sequence were transcribed in vitro, followed by in vitro translation in reticulocyte lysate, with and without agmatine and polyamine analogs. Luminescence was measured using the Dual-Luciferase™ reporter assay (Promega).
This assay allows one to measure the efficiency of translational frameshifting on the human antizyme sequence. Briefly, two variations of the human antizyme sequence were cloned between the renilla (5') and firefly (3') luciferase reporter genes in pRL-SV40 (Promega) plasmids. One plasmid contained the wild type antizyme sequence which requires a +1 frameshift for complete translation, the other plasmid contained modified, in-frame antizyme (control) sequences. These plasmids are utilized to transiently or stably transfect human cell lines with either the wild type or in-frame antizyme sequence-containing plasmids. Renilla and firefly luciferase activity in each assay (with cells containing one of the two plasmids) is measured to account for polymerase fall-off or translational efficiency in the presence or absence of the analogs of the invention. That ratio is used to normalize the firefly luciferase activity seen in the wild type sequence, compared to the in-frame control sequence.
as §1, with “agmatine” for “agmatine and polyamine”, “agmatine analogs .” for “agmatine and polyamine analogs.”

[2] = system: polyamine transporter; experiment: polyamine transport assay (^3H-spermidine uptake into cells); format: cell-based; conditions: result in words
Procedure: Cells in log growth are pre-incubated with an agmatine analog followed by addition of ^3H-spermidine. […] The cells were then washed three times with cold PBS, lysed with 0.1% SDS, and the amount of polyamine incorporation into the cells was determined by scintillation counting of the cell lysates. To determine a Ki, four substrate concentrations and five inhibitor concentrations and a control were tested. The Ki was determined by a non-linear fit to the Michaelis-Menten equation.
(§2) For example, compounds ORI 1041 and ORI 1093 were evaluated as polyamine transport inhibitors and for growth inhibition in a cell based (MDA-MB-231 breast cancer cell line) assay with and without DFMO.

[3] = system: breast carcinoma cell line, MDA-MB-231; experiment: cell growth inhibition, seven days, MTS/PMS dye assay; format: cell-based; conditions: for IC50: Homo sapiens
Procedure: The IC50 values in the above Table as well as Tables 1B and 1C below were determined with the breast carcinoma cell line, MDA-MB-231.
Cells were plated in 96-well plates such that they would be in log growth for the duration of the assay. The day after plating, drugs were added to the cells and they were grown for seven days. Cell growth was measured by MTS/PMS dye assay (Promega). The assay was done in the presence of 1 mM aminoguanidine to inhibit amine oxidases from the serum in the culture media and 1 µM spermidine to insure that any growth inhibition was not the result of depletion of external polyamines from the media. The assay was also performed over seven days because this allows for the greatest dynamic range in cell growth due to the mechanism of concomitant inhibition of polyamine biosynthesis and transport. Cells need to divide several times before the intracellular level of polyamines begin to decrease to growth inhibitory levels.
as §2

[4] = system: human antizyme sequence; experiment: in vivo (cellular) antizyme dual luciferase frameshifting assay in transfected cell lines; format: cell-based; conditions: for In vivo (cellular) antizyme induction: result in words
Procedure: As one skilled in the art would appreciate, there are a multitude of means to test the agmatine and polyamine analogs of the invention for the ability to induce a frameshift. For example, Satriano et al. (J. Biol. Chem., 273:15313-15316 (1998)) and the references cited therein utilized an in vitro reticulocyte system. The agmatine and polyamine analogs of the invention were tested in vitro (such as by test tube) and in vivo (such as by cell culture) using the antizyme dual luciferase frameshifting assay as described by Grentzmann, G., et al in RNA 4:479-486, 1998. This assay allows one to measure the efficiency of translational frameshifting on the human antizyme sequence. Briefly, two variations of the human antizyme sequence were cloned between the renilla (5') and firefly (3') luciferase reporter genes in pRL-SV40 (Promega) plasmids. One plasmid contained the wild type antizyme sequence which requires a +1 frameshift for complete translation, the other plasmid contained modified, in-frame antizyme (control) sequences. These plasmids are utilized to transiently or stably transfect human cell lines with either the wild type or in-frame antizyme sequence-containing plasmids. Renilla and firefly luciferase activity in each assay (with cells containing one of the two plasmids) is measured to account for polymerase fall-off or translational efficiency in the presence or absence of the agmatine and polyamine analogs of the invention. That ratio is used to normalize the firefly luciferase activity seen in the wild type sequence, compared to the in-frame control sequence. […] Agmatine and polyamine analogs of the invention were tested in vitro (such as by test tube) and in vivo (such as with cell lines) using the antizyme dual luciferase frameshifting assay as described by Grentzmann, G., et al in RNA 4:479-486, 1998. This assay allows one to measure the efficiency of translational frameshifting on the human antizyme sequence. Briefly, two variations of the human antizyme sequence were cloned between the renilla (5') and firefly (3') luciferase reporter genes in pRL-SV40 (Promega) plasmids. One plasmid contained the wild type antizyme sequence which requires a +1 frameshift for complete translation, the other plasmid contained modified, in-frame antizyme (control) sequences. These plasmids are utilized to transiently or stably transfect human cell lines with either the wild type or in-frame antizyme sequence-containing plasmids. Renilla and firefly luciferase activity in each assay (with cells containing one of the two plasmids) is measured to account for polymerase fall-off or translational efficiency in the presence or absence of the analogs of the invention. That ratio is used to normalize the firefly luciferase activity seen in the wild type sequence, compared to the in-frame control sequence.

[5] = MDA-MB-231, with DFMO, unit inferred, read-out: Cell Growth IC50+DFMO
[6] = MDA-MB-231, without DFMO, unit printed in b172 only, read-out: Cell Growth IC50

NCCCNCCCCNCCCNS(=O)(=O)c1ccc2oc3ccccc3c2c1 [Analog 1041] was tested, and the In vitro ([1]; antizyme induction at 0.06 mM) was 15% at 0.06 mM, the “In vitro antizyme induction” value [1] was “demonstrated in vitro induction activity; also recorded: dramatic increase in in vitro induction activity in comparison with spermidine” and the polyamine transport inhibition [2] was “fairly good transport inhibitor”. The IC50 [3, 5] was 53 µM, the IC50 [3, 6] was 50 µM and the IC50 ([3]; MDA-MB-231, Tables 1A and 1B, unit inferred, read-out: IC50) was 12 µM. For the same molecule, the “R value (R= IC50/ IC50+DFMO)” value ([3]; MDA-MB-231) was roughly 1.

For CC(=O)NCCCNCCCCNCCCN [Analog 1110, N^1-acetylspermine], the “In vivo (cellular)” value ([4]; antizyme induction @ 10 mM) was 30% @ 10 mM, the “In vivo (cellular) antizyme induction” value [4] was “demonstrated antizyme inducing activity” and the “In vivo (cellular) antizyme induction” value ([4]; listed as ORI 1110) was “diminished ability to induce the expression of active antizyme in comparison with spermidine”.

NCCCCNCCCCNCCCCN [Analog 1190] was tested, and the “In vivo (cellular) antizyme induction” value [4] was “negative; also recorded: no ability to induce antizyme”.

For NCCCNCc1ccc(CNCCCN)cc1 [Analog 1283], the “In vivo (cellular) antizyme induction” value [4] was “positive; also recorded: increase in induction activity”.

For N=C(N)NOCC[C@H](N)C(=O)O [Analog 1284, L-canavanine], the “In vitro antizyme induction” value [1] was “no activity”.

With NCCCON [Analog 1291, AOPA] the antizyme induction [1] was “no induction activity is observed”.

With NCCCCON [Analog 1292, AOBA] the antizyme induction [1] was “no induction activity is observed”.

In the case of O=S(=O)(NCCCNCCCCNCCCNS(=O)(=O)c1ccc2oc3ccccc3c2c1)c1ccc2oc3ccccc3c2c1 [Analog 1293], the polyamine transport inhibition [2] is reported as “fairly poor transport inhibitor”, the IC50 [3, 5] is reported as 2 µM and the IC50 [3, 6] is reported as 2 µM. The “R value (R= IC50/ IC50+DFMO)” value ([3]; MDA-MB-231) was roughly 1.

CC(N)CCC(C)N (stereo not shown) [Analog 1351, 2,5-diaminohexane] was tested, and the “In vitro antizyme induction” value [1] was “induces antizyme”.

With NCCCC[C@H](N)C(=O)O [L-lysine, reference compound] the antizyme induction [1] was “does not induce antizyme activation”.

For NCCCCNCCCN [Spermidine, reference compound], the In vitro ([1]; antizyme induction @ 1 mM) was 22% @ 1 mM and the “In vivo (cellular)” value ([4]; antizyme induction @ 16 mM) was 35% @ 16 mM.

With NCCCCCN [cadaverine, reference compound] the “In vitro antizyme induction” value [1] was “no induction was observed; also recorded: no in vitro activity” and the “In vivo (cellular) antizyme induction” value [4] was “only slightly less active than putrescine; also recorded: significant in vivo activity”.

With NCCCNCCCCNCCCN [spermine, reference compound] the “In vitro antizyme induction” value [1] was “induced antizyme” and the “In vivo (cellular) antizyme induction” value [4] was “induced antizyme”.

With L-Lys-spermine conjugate [Analog 1202] the “In vitro antizyme induction” value [1] was “diminished ability to induce antizyme” and the “In vivo (cellular) antizyme induction” value [4] was “positive; also recorded: diminished ability to induce antizyme”.

With L-Val-spermine [Analog 1157] the “In vitro antizyme induction” value [1] was “retained the ability to induce antizyme”.

With α-dimethylspermine [Analog 1383] the “In vivo (cellular) antizyme induction” value [4] was “positive; also recorded: to the same extent as spermine”.

Source: patent EP1159261B1, “ANTIZYME MODULATORS AND THEIR USE” (ORIDIGM CORPORATION, priority 1999, dated 2000)
